Tested on: sturgeon suspension cells
Experiment: Proliferation of sturgeon suspension cells treated with epigenetic modifiers (cell counts, Neubauer chamber)
Details: exposed once per week

| Compound | proliferation compared to the standard culture | expansion factor (within 4 weeks, 1 μM, 10 μM, 50 μM, 100 μM and 500 μM) | expansion factor (within 6 weeks, 30 μM, 100 μM, 300 μM, 1 mM and 3 mM) |
| --- | --- | --- | --- |
| CCCC(=O)O [butyric acid] | increase in proliferation | 16 |  |
| CCCC(CCC)C(=O)O [valproic acid] | increase in proliferation |  | 8 |

From US20240327786A1, “NON-MAMMALIAN AQUATIC ANIMAL CELLS AND EXTRACTS” (Shah Caviar Limited, priority 2021, published 2024)
